Consider 2 molecules from patent US6482423B1, “Antimicrobial wipes which provide improved residual benefit versus gram positive bacteria” (The Procter & Gamble Company, priority 1999, dated 2002).

The test system of this experiment is Vibrio fischerio. The experiment in a line: Microtox Response Test (bioluminescence of Microtox Acute Toxicity Reagent). The class given is cell-based. The following applies: pure anionic surfactant; index from EC50 Value (ppm) decreasing bioluminescence by 50%, 5 minutes. The source says:
The biological activity/mildness of a pure surfactant can measured directly via a Microtox Response Test hereinafter described in the Analytical Methods section and can be reported as a Microtox Response Index. By “pure surfactant” it is meant a chemical composition consisting essentially of a single surfactant entity, wherein the entity has essentially one chain length, head group and salt counter ion. From a standpoint of high biological activity, preferred anionic surfactants of the antimicrobial cleansing compositions of the present invention have a Microtox Response Index of less that about 150, more preferably less than about 100 and most preferably less than about 50. […]
For surfactant compositions which are mixtures of surfactants rather than pure surfactants (this includes “commercial grade” surfactants which typically comprise mixtures of entities with different chain lengths and potentially have higher levels of impurities), the Microtox Response Index for any individual surfactant component is not a reliable measurement of biological activity or mildness. In the case of mixtures, the Microtox Index of each individual component can be determined and the weighted average used as the Index for the mixture if all the individual components of the mixture are known. […]

As to ammonium laureth-3 sulfate, the “Microtox Index” value is 120. In the case of `CCCCCCCCCCCCOS(=O)(=O)O.N` [ALS, ammonium lauryl sulfate] it was 1.0.
